ChEMBL document CHEMBL1150037, “Calcineurin has a very tight-binding pocket for the side chain of residue 4 of cyclosporin” (1994)

Tests used:
[1] = molecular target: Peptidyl-prolyl cis-trans isomerase A (Rattus norvegicus) (UniProt P10111); test: In vitro affinity towards cyclophilin A was determined under competitive ELISA systems using protein-conjugated ligand CsA
[2] = organism: Mus musculus; test: Immunosuppressive activity by mouse mixed lymphocyte reaction (MLR_M) relative to cyclosporin as 1; type: functional
[3] = Immunosuppressive activity with the help of a reporter gene assay for IL-2 (IL2-RGA) relative to cyclosporin as 1; type: functional

Peptidyl-prolyl cis-trans isomerase A (Rattus norvegicus), sequence (P10111 whole entry): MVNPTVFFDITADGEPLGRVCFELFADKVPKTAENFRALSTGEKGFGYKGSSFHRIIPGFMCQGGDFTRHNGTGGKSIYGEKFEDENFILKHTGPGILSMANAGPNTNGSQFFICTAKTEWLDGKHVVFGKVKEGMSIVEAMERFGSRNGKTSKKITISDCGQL

C/C=C/C[C@@H](C)[C@@H](O)[C@H]1C(=O)N[C@@H](CC)C(=O)N(C)CC(=O)N(C)[C@@H](CC(C)(C)O)C(=O)N[C@@H](C(C)C)C(=O)N(C)[C@@H](CC(C)C)C(=O)N[C@@H](C)C(=O)N[C@H](C)C(=O)N(C)[C@@H](CC(C)C)C(=O)N(C)[C@@H](CC(C)C)C(=O)N(C)[C@@H](C(C)C)C(=O)N1C
Relative IC50 [1]: 0.9
Relative IC50 [2]: 130
Relative IC50 [3]: 110

C/C=C/C[C@@H](C)[C@@H](O)[C@H]1C(=O)N[C@@H](CC)C(=O)N(C)CC(=O)N(C)[C@@H](CC(C)(C)F)C(=O)N[C@@H](C(C)C)C(=O)N(C)[C@@H](CC(C)C)C(=O)N[C@@H](C)C(=O)N[C@H](C)C(=O)N(C)[C@@H](CC(C)C)C(=O)N(C)[C@@H](CC(C)C)C(=O)N(C)[C@@H](C(C)C)C(=O)N1C
Relative IC50 [1]: 2.1
Relative IC50 [2]: 25
Relative IC50 [3]: 7

C/C=C/C[C@@H](C)[C@@H](O)[C@H]1C(=O)N[C@@H](CC)C(=O)N(C)CC(=O)N(C)[C@@H](CC)C(=O)N[C@@H](C(C)C)C(=O)N(C)[C@@H](CC(C)C)C(=O)N[C@@H](C)C(=O)N[C@H](C)C(=O)N(C)[C@@H](CC(C)C)C(=O)N(C)[C@@H](CC(C)C)C(=O)N(C)C(C(C)C)C(=O)N1C (single isomer, unassigned)
Relative IC50 [1]: 1.2
Relative IC50 [2]: 65
Relative IC50 [3]: 163

C/C=C/C[C@@H](C)[C@@H](O)[C@H]1C(=O)N[C@@H](CC)C(=O)N(C)CC(=O)N(C)[C@@H](CCC(C)C)C(=O)N[C@@H](C(C)C)C(=O)N(C)[C@@H](CC(C)C)C(=O)N[C@@H](C)C(=O)N[C@H](C)C(=O)N(C)[C@@H](CC(C)C)C(=O)N(C)[C@@H](CC(C)C)C(=O)N(C)C(C(C)C)C(=O)N1C (single isomer, unassigned)
Relative IC50 [1]: 1.9
Relative IC50 [2]: 3.5
Relative IC50 [3]: 9

C/C=C/C[C@@H](C)[C@@H](O)[C@H]1C(=O)N[C@@H](CC)C(=O)N(C)CC(=O)N(C)[C@@H](CC2CC2)C(=O)N[C@@H](C(C)C)C(=O)N(C)[C@@H](CC(C)C)C(=O)N[C@@H](C)C(=O)N[C@H](C)C(=O)N(C)[C@@H](CC(C)C)C(=O)N(C)[C@@H](CC(C)C)C(=O)N(C)C(C(C)C)C(=O)N1C (single isomer, unassigned)
Relative IC50 [1]: 2.8
Relative IC50 [2]: 5
Relative IC50 [3]: 5.3

C=C(C)C[C@H]1C(=O)N[C@@H](C(C)C)C(=O)N(C)[C@@H](CC(C)C)C(=O)N[C@@H](C)C(=O)N[C@H](C)C(=O)N(C)[C@@H](CC(C)C)C(=O)N(C)[C@@H](CC(C)C)C(=O)N(C)C(C(C)C)C(=O)N(C)[C@@H]([C@H](O)[C@H](C)C/C=C/C)C(=O)N[C@@H](CC)C(=O)N(C)CC(=O)N1C (single isomer, unassigned)
Relative IC50 [1]: 1.8
Relative IC50 [2]: 1.6
Relative IC50 [3]: 4

C/C=C/C[C@@H](C)[C@@H](O)[C@H]1C(=O)N[C@@H](CC)C(=O)N(C)CC(=O)N(C)[C@@H](C(C)C)C(=O)N[C@@H](C(C)C)C(=O)N(C)[C@@H](CC(C)C)C(=O)N[C@@H](C)C(=O)N[C@H](C)C(=O)N(C)[C@@H](CC(C)C)C(=O)N(C)[C@@H](CC(C)C)C(=O)N(C)C(C(C)C)C(=O)N1C (single isomer, unassigned)
Relative IC50 [1]: 0.5
Relative IC50 [2]: 130
Relative IC50 [3]: 2500
